Common to all, as to assay: inhibition of tumour cell growth, NCI panel, 48 h
The test system of test [1] is KM12 colon.
For test [2], the system named is SR leukemia.
Test [3] deals with SK-MEL-2 melanoma.
Test [4] relates to SF-268 CNS.
The subject of test [5] is UO-31 renal.
The test system of test [6] is HL-60(TB) leukemia.
Test [7] deals with NCI-H522 lung.
Test [8] has as its system SF-539 CNS.
In test [9] the test system is RPMI-8226 leukemia.
In test [10] the test system is MALME-3M melanoma.

Where “and” joins values, the source holds several entries; their conditions need not be identical. Equal entries are not always repeated.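 Step 1: Grow cells in 96-well plates. Step 2: Expose to compound for 48 hours at 5 concentrations. Step 3: Interpolate endpoints linearly; if unreached, use highest concentration. The concentration for 50% growth inhibition is given as GI50. TGI denotes the concentration required for complete inhibition of growth.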

Take `CC(=O)OC[C@@]12C[C@H]3C(=O)C(C)(C)C[C@H]3[C@]1(C)[C@@H](OC(C)=O)[C@]1(O)[C@H]([C@@H](OC(=O)c3ccccc3)[C@@H](C)[C@H]1OC(C)=O)[C@H]2OC(C)=O`: the TGI in test [1], in test [2], in [3], in test [4], in [5] and in test [6] was over 20 µM throughout. For the same compound, the TGI in [7] and in test [8] was over 20 µM throughout.
As for `C#CCOC(=O)c1ccccc1OC(C)=O`, the TGI in test [1], in test [2], in [3], in [4], in test [5] and in test [6] was over 100 µM each time. Also, the TGI in test [7], in test [8] and in test [9] was over 100 µM each time.
`COc1cc2c(cc1OC)CCN=C2`: the TGI in test [1], in test [2], in [3], in test [5], in [6] and in test [9] was over 100 µM in each case. This compound also showed a TGI in test [10] of over 100 µM.
With `O=C(/C=C/c1ccc(Cl)c(Cl)c1)Oc1ccc(/C=C2\CCCCC2=O)cc1`, the TGI in test [1], in test [2], in test [3], in test [4], in [5] and in test [6] was over 100 µM in each case. Also, the TGI in test [7], in [8] and in test [9] was over 100 µM in each case.
Regarding `NC(=O)N(O)c1cccc(Br)c1`, the TGI in test [1], in test [2], in [3], in test [4], in [5] and in test [6] was over 100 µM in each case. Moreover, the TGI in [7], in [8] and in [9] was over 100 µM each time.
`CCCCCCCCCN1CCC(=O)C(C(=O)OC)C1` (stereo unspecified): the TGI in test [1] came to 13.1 µM; in test [2] it was 18.1 µM; in test [4], 30.2 µM; in test [5], 22 µM; in test [6], 10.9 µM; in [7] it was 22 µM. Also, the TGI came out at 36.5 µM in [8] and 49.1 µM in test [9].
`CSCCC(NC(c1ccccc1)c1ccccc1)[P+](=O)O` (stereo unspecified): the TGI in test [1], in test [2], in test [3], in test [4], in test [5] and in test [6] was over 100 µM in each case. The TGI in test [7], in [9] and in test [10] was over 100 µM each time.
For the compound `CCOC(=O)c1c(SCCO)n(-c2ccccc2)c(=S)n(-c2ccccc2)c1=O`, the TGI in test [1], in test [2], in test [3], in [4], in test [5] and in test [6] was over 100 µM each time. For the same compound, the TGI in test [7], in test [9] and in test [10] was over 100 µM in each case.
In the case of `CSCCCCCCCCCCOc1ccc(C=C2C(=C(C#N)C#N)c3ccccc3C2=C(C#N)C#N)cc1`, the TGI in test [1] is 36.8 µM; in [2], 52.6 µM; in test [3], 36.7 µM; in test [4] it was 34.2 µM; in test [5] it was 29.9 µM; in test [6], 4.34 µM. Moreover, the TGI in test [7] is 38.2 µM; in test [8] it was 37.3 µM; in test [9], over 100 µM.
For `CC1(C)CC(=O)c2c(nc3ccc4ccccc4c3c2-c2ccc(NC(=O)CCCCC(=O)Nc3ccc(-c4c5c(nc6ccc7ccccc7c46)CC(C)(C)CC5=O)cc3)cc2)C1`, the TGI in [1], in test [2], in [3], in test [4], in test [5] and in test [6] was over 100 µM each time. Besides, the TGI in [8] and in test [9] was over 100 µM in each case.
Take `CC(=O)c1cccc(NC2C(N)C(NC(=O)N(C)C)(C(C)O)C(C)(O)C2(O)COC(=O)c2c(C)cccc2O)c1` (stereo unspecified): the TGI was 0.213 µM and 0.164 µM in test [1]; over 100 µM in [2]; 0.0186 µM in [3]; 0.194 µM and 0.257 µM in test [5]; under 0.001 µM in test [6]; 0.0641 µM in test [7]. In [8], the TGI was under 0.001 µM. In test [4], the GI50 is under 1 nM.
For `S=C1C=C(c2ccccc2)Sc2ccccc2N1`, the TGI in [1], in test [2], in test [4], in [5], in test [6] and in [7] was over 100 µM each time. Also, the TGI in test [9] and in test [10] was over 100 µM each time.

The values above are taken from PubChem BioAssay (NCI).
